Experimental data as given in US12581252B2, “Substituted pyrrolo[3,4-b]pyridines as PI3K-α inhibitors” (Relay Therapeutics, Inc., priority 2020, dated 2026).

biological target: H1047R PIK3CA enzyme (Homo sapiens, UniProt P42336, H1047R); assay: ADP-Glo Biochemical PIK3CA Kinase Assay
Sequence (P42336 whole entry H1047R): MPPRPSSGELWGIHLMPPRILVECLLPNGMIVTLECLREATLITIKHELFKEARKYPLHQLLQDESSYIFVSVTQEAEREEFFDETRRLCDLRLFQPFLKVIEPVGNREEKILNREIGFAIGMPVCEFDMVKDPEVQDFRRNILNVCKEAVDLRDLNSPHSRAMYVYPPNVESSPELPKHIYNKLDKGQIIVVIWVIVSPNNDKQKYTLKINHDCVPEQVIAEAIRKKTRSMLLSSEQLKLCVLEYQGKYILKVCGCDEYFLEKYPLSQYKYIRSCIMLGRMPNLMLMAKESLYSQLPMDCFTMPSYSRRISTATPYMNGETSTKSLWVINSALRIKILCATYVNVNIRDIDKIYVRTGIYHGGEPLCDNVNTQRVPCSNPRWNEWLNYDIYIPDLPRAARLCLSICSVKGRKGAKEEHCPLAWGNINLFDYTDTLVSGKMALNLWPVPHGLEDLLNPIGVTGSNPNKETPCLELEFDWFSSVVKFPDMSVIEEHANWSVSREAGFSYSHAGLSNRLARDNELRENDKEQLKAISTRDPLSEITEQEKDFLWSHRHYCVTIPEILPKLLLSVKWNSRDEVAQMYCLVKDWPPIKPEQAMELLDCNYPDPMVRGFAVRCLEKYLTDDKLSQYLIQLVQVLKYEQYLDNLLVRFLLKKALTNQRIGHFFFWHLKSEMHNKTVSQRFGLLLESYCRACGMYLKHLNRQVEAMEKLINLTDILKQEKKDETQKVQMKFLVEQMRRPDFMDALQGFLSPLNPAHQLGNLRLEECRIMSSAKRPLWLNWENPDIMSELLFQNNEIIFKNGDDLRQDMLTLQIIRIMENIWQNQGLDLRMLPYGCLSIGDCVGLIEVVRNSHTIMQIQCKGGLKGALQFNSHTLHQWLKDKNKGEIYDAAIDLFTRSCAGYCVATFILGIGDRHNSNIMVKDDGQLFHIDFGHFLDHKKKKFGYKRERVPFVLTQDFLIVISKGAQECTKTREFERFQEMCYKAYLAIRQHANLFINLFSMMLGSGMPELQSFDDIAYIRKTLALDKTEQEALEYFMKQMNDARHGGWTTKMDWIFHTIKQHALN
Sequence (P27986 whole entry partner): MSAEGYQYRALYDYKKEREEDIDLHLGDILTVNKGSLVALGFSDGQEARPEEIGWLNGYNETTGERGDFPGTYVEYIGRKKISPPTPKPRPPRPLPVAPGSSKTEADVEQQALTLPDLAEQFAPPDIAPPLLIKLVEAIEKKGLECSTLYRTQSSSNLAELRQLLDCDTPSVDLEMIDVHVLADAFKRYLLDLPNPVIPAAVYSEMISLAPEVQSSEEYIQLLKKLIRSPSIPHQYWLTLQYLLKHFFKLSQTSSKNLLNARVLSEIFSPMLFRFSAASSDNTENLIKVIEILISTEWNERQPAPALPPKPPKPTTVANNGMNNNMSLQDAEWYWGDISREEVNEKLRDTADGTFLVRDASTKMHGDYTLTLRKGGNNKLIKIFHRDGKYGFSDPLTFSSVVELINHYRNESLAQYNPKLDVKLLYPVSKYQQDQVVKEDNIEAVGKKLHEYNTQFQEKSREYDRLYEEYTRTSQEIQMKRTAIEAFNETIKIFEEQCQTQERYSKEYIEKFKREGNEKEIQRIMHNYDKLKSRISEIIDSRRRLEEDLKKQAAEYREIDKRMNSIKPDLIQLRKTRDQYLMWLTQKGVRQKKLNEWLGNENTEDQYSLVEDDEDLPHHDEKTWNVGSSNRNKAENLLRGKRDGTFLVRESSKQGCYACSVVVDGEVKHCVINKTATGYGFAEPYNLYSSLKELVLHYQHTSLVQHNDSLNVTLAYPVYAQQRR

`N#Cc1cc(-c2cc(NC(=O)c3cc(F)cc(C(F)(F)F)c3)c3c(c2)C(=O)N[C@H]3c2cc(F)ccc2Cl)cn2ncnc12` [Compound I-1882] and `Cn1cc(-c2cc(NC(=O)c3cc(F)cc(C(F)(F)F)c3)c3c(c2)C(=O)NC3c2cc(F)ccc2Cl)c(C#N)n1` (centres unmarked) [Compound I-1656] cannot be ordered by IC50: ≤ 100 nM for the first, ≤ 100 nM for the second.

Compared with `O=C(Nc1cc(CS(=O)(=O)c2ccccc2)cc2c1[C@@H](c1cc(F)ccc1Cl)NC2=O)c1cc(F)cc(C(F)(F)F)c1` [Compound I-1593], `CNS(=O)(=O)Cc1cc(NC(=O)c2cc(F)cc(C(F)(F)F)c2)c2c(c1)C(=O)NC2c1cc(F)ccc1Cl` (centres unmarked) [Compound I-1365] is lower in IC50: 1000 to 10000 nM for the first, ≤ 100 nM for the second. The second is the more potent here.

`O=C1NC(c2cc(F)ccc2Cl)c2c1cc(-c1ccc3ncnn3c1)cc2N1CCn2cnnc2C1` (centres unmarked) [Compound I-2019] and `O=C1NC(c2cc(F)ccc2Cl)c2c(NC(=O)C3CC(O)C3)cc(-c3ccc4ncnn4c3)cc21` (centres unmarked) [Compound I-1664] fall in the same range of IC50: 10000 to 100000 nM for the first, 10000 to 100000 nM for the second.

`CC(=O)c1cc(NC(=O)c2cc(F)cc(C(F)(F)F)c2)c2c(c1)C(=O)NC2c1cc(F)ccc1Cl` (centres unmarked) [Compound I-127, N-(6-Acetyl-3-(2-chloro-5-fluorophenyl)-1-oxoisoindolin-4-yl)-3-fluoro-5-(trifluoromethyl)benzamide] and `CN(C)C(=O)Cc1cc(NC(=O)c2cc(F)cc(C(F)(F)F)c2)c2c(c1)C(=O)NC2c1cc(F)ccc1Cl` (centres unmarked) [Compound I-476] cannot be ordered by IC50: ≤ 100 nM for the first, ≤ 100 nM for the second.

`Cc1c(-c2cc(NC(=O)c3cc(F)cc(C(F)(F)F)c3)c3c(c2)C(=O)N[C@H]3c2cc(F)ccc2Cl)ccc2ncnn12` [Compound I-1876] and `Nc1nc2cc(-c3cc(NC(=O)c4cc(F)cc(C(F)(F)F)c4)c4c(c3)C(=O)NC4c3cc(F)ccc3Cl)ccn2n1` (centres unmarked) [Compound I-1370] cannot be ordered by IC50: ≤ 100 nM for the first, ≤ 100 nM for the second.

`O=C(Nc1cc(Br)cc2c1C(c1cc(F)ccc1Cl)NC2=O)c1cccc(C(F)(F)F)n1` (centres unmarked) [Compound I-567] and `COc1ccc(F)cc1C(=O)Nc1cc(Br)cc2c1C(c1cc(F)ccc1Cl)NC2=O` (centres unmarked) [Compound I-796] fall in the same range of IC50: 1000 to 10000 nM for the first, 1000 to 10000 nM for the second.

First: Cc1ccccc1C1NC(=O)c2cccc(NC(=O)c3noc4ccc(Cl)cc34)c21 (centres unmarked) [Compound I-200]
Second: O=C1NC(c2cc(Cl)ccc2Cl)c2c(NC(=O)c3nsc4ccccc34)cccc21 (centres unmarked) [Compound I-157]
The IC50 of the first is higher: 1000 to 10000 nM for the first, ≤ 100 nM for the second. The second is the more potent here.

First: Cn1cc(-c2cc(NC(=O)c3cc(F)cc(C(F)(F)F)c3)c3c(n2)C(=O)N[C@@H]3c2cc(F)ccc2Cl)cn1 [Compound I-186]
Second: O=C(Nc1ccnc2c1C(c1cc(F)ccc1Cl)NC2=O)c1cc(F)cc(C(F)(F)F)c1 (centres unmarked) [Compound I-305]
The IC50 of the first is higher: 500 to 1000 nM for the first, 100 to 500 nM for the second.

Compared with `Cc1ccccc1-n1[nH]c(=O)c2cccc(NC(=O)c3csc4ccccc34)c21` [Compound I-68], `Cc1ccccc1C1NC(=O)c2nccc(NC(=O)c3csc4ccccc34)c21` (centres unmarked) [Compound I-7] is lower in IC50: 500 to 1000 nM for the first, 100 to 500 nM for the second.

First: O=C1N[C@@H](c2cc(F)ccc2Cl)c2c(NC(=O)N3C[C@H](O)c4ccccc43)cc(-c3ccc4ncnn4c3)cc21 (single isomer, unassigned) [Compound I-1576]
Second: O=C1NC(c2cc(F)ccc2Cl)c2c(NC(=O)C34CCC(CC3)O4)cc(-c3ccc4ncnn4c3)cc21 (centres unmarked) [Compound I-1966]
The IC50 of the first is lower: 100 to 500 nM for the first, 10000 to 100000 nM for the second.

Compared with `Cn1nc(Nc2cc(Br)cc3c2C(c2cc(F)ccc2Cl)NC3=O)c2ccccc21` (centres unmarked) [Compound I-1349], `O=C1NC(c2cc(F)ccc2Cl)c2c(NC(=O)c3cc(F)cc4ccc(=O)[nH]c34)cc(Br)cc21` (centres unmarked) [Compound I-1424] is lower in IC50: 10000 to 100000 nM for the first, 1000 to 10000 nM for the second.

First: CC[C@@H](CC(=O)Nc1cccc2c1[C@H](c1cc(F)ccc1Cl)NC2=O)[C@H](C)C(F)(F)F (single isomer, unassigned) [Compound I-2336]
Second: O=C1N[C@@H](c2cc(F)ccc2Cl)c2c(NC(=O)[C@H]3CCC[C@H](OC(F)(F)F)C3)cccc21 (single isomer, unassigned) [Compound I-2212]
The IC50 of the first is lower: 1000 to 10000 nM for the first, 10000 to 100000 nM for the second.

`CCC[C@]1(O)CN(C(=O)Nc2cccc3c2[C@H](c2cc(F)ccc2Cl)NC3=O)c2ccc(F)cc21` (single isomer, unassigned) [Compound I-2458] and `CC(C)[C@@]1(O)CN(C(=O)Nc2cccc3c2[C@H](c2cc(F)ccc2Cl)NC3=O)c2ccc(F)cc21` (single isomer, unassigned) [Compound I-2452] fall in the same range of IC50: 1000 to 10000 nM for the first, 1000 to 10000 nM for the second.

First: O=C(Nc1cccc2c1C(C1CCCC(O)C1)NC2=O)c1cc(F)cc(C(F)(F)F)c1 (mixture of isomers) [Compound I-2227]
Second: O=C(Nc1cccc2c1C(C1CCCCN1)NC2=O)c1cc(F)cc(C(F)(F)F)c1 (centres unmarked) [Compound I-1675]
The IC50 of the first is higher: 10000 to 100000 nM for the first, 1000 to 10000 nM for the second.

First: CC(C)(O)Cc1cc(F)cc(C(=O)Nc2cc(CC(C)(C)O)cc3c2C(c2cc(F)ccc2Cl)NC3=O)c1 (centres unmarked) [Compound I-696]
Second: CCCCC(C)(O)c1cc(NC(=O)c2cc(F)cc(C(F)(F)F)c2)c2c(c1)C(=O)NC2c1cc(F)ccc1Cl (centres unmarked) [Compound I-1186]
The IC50 of the first is higher: 10000 to 100000 nM for the first, ≤ 100 nM for the second. The second is the more potent here.

First: O=C1N[C@H](c2cc(F)ccc2Cl)c2c(NC(=O)N3C[C@@](O)(C(F)F)c4cc(F)ccc43)cccc21 (single isomer, unassigned) [Compound I-2556]
Second: Cc1ccccc1C1NC(=O)c2cccc(NC(=O)c3ncc4c(F)cc(F)cn34)c21 (centres unmarked) [Compound I-180, 6,8-Difluoro-N-(1-oxo-3-(o-tolyl)isoindolin-4-yl)imidazo[1,5-a]pyridine-3-carboxamide]
The IC50 of the first is lower: 500 to 1000 nM for the first, 10000 to 100000 nM for the second. The first is the more potent here.

First: O=C1N[C@@H](c2cc(F)ccc2Cl)c2c(NC(=O)[C@H]3CC(C(F)(F)F)C[C@@H](O)C3)cc(Br)cc21 (single isomer, unassigned) [Compound I-2152]
Second: O=C1NC(c2cc(F)ccc2Cl)c2c(NC(=O)C3CNCC(C(F)(F)F)C3)cc(-c3ccc4ncnn4c3)cc21 (mixture of isomers) [Compound I-2051]
The IC50 of the first is lower: 1000 to 10000 nM for the first, 10000 to 100000 nM for the second.

`Cc1ccccc1[C@H]1NC(=O)c2nccc(NC(=O)N3CCc4c(F)cc(F)cc43)c21` [Compound I-230] and `Cc1ccccc1[C@H]1NC(=O)c2nccc(NC(=O)N3CCc4ccc(F)cc43)c21` [Compound I-247] fall in the same range of IC50: 10000 to 100000 nM for the first, 10000 to 100000 nM for the second.

First: CS(=O)(=O)N1CC(Oc2cc(NC(=O)c3cc(F)cc(C(F)(F)F)c3)c3c(c2)C(=O)NC3c2cc(F)ccc2Cl)C1 (centres unmarked) [Compound I-1346]
Second: N#CC[C@H](O)c1cc(NC(=O)c2cc(F)cc(C(F)(F)F)c2)c2c(c1)C(=O)N[C@@H]2c1cc(F)ccc1Cl (single isomer, unassigned) [Compound I-1392]
The IC50 of the first is lower: ≤ 100 nM for the first, 1000 to 10000 nM for the second. The first is the more potent here.

First: CN1CCN(C(=O)Nc2cc(Br)cc3c2[C@H](c2cc(F)ccc2Cl)NC3=O)CC1 (single isomer, unassigned) [Compound I-2244]
Second: COc1cc(C(=O)Nc2cc(Br)cc3c2C(c2cc(F)ccc2Cl)NC3=O)cc(Cl)c1F (centres unmarked) [Compound I-991]
The IC50 of the first is higher: 10000 to 100000 nM for the first, 100 to 500 nM for the second. The second is the more potent here.

`O=C(Nc1cc(-c2cn3ccncc3n2)cc2c1C(c1cc(F)ccc1Cl)NC2=O)c1cc(F)cc(C(F)(F)F)c1` (centres unmarked) [Compound I-1300] and `COc1ncc(-c2cc(NC(=O)c3cc(F)cc(C(F)(F)F)c3)c3c(c2)C(=O)NC3c2cc(F)ccc2Cl)cc1F` (centres unmarked) [Compound I-1419] cannot be ordered by IC50: ≤ 100 nM for the first, ≤ 100 nM for the second.

`C=Cc1ccc(NC(=O)c2nsc3ccccc23)c2c1C(=O)NC2c1ccccc1C` (centres unmarked) [Compound I-205] and `O=C(Nc1cc(-c2ccc(=O)n(C3CC3)c2)cc2c1C(c1cc(F)ccc1Cl)NC2=O)c1cc(F)cc(C(F)(F)F)c1` (centres unmarked) [Compound I-700] cannot be ordered by IC50: 100 to 500 nM for the first, ≤ 100 nM for the second.
